The values that follow come from US11839873B2, “Valveless fluidic switching flowchip and uses thereof” (Protein Fluidics, Inc., priority 2018, dated 2023).

Molecules are shown by their SMILES. Residues, ends and D or L forms follow the SMILES beside them. *: point of attachment. Cbz = O=C(OCc1ccccc1)*

The test system of assay [1] is THP-1 cells stimulated with PMA and LPS (IL-8, IL-1β, TNFα secretion). The experiment in a line: THP-1 cell cytokine secretion assay, microfluidic flowchip ELISA. As to conditions: for THP-1 cellular inflammation response as shown by upregulation of IL-8: THP-1 cells stimulated with PMA and LPS for 20 hours at 37° C., concentration dependent effect of compound; for cytokine expression: THP-1 cells treated with compound prior to PMA and LPS activation, cytokine secretion quantified. The format is cell-based, human. (In general: In an ELISA, binding on a coated surface is turned into a signal by an enzyme label.)
Procedure: THP-1 cells were stimulated with PMA and LPS for 48 hours. […] To evaluate anti-inflammatory compounds, cells were treated with the kinase inhibitors SB202190 and PDTC, and the antibiotic moxifloxacin prior to activation. Then, inhibition of the inflammation responses by those anti-inflammatory compounds was measured by quantifying cytokine secretion.
A microfluidic flowchip was designed containing multiple reservoirs and nodes that accommodate the reagents required to perform an ELISA assay. The assay channel (from Well 3 to Well 9) has a cross-section of 50 μm by 300 μm and length of 25 mm while the other transfer channels have cross-sections of 50 μm by 50 μm. […] The flowchip was made out of COC using injection molding and the bottom surface was sealed with a COC film. Each reservoir has a capacity of ˜30 μl and was filled with 20 μl of the appropriate assay reagent. Assays were performed using a single protocol for all reagents as shown in FIG. 22 carried out in the following order: Capture Antibody (W3), Blocking Buffer (W2), Sample (W1), Primary Antibody (W4), Avidin-HRP (W5), Wash Buffer (Wash), Substrate (W7), and Stop Solution (W6).
The Capture and Primary antibodies are specific to each immunoassay and matched antibody pairs for the IL-8, IL-β, and TNFα assays were obtained from a commercial source (Biolegend, San Diego, CA). The buffers and Stop Solution are common to all three assays and were made using materials obtained from Sigma-Aldrich. The Avidin-HRP (Biolegend, San Diego, CA) and Substrate (Abcam, Cambridge, MA) were also common to each assay. The Capture Ab's were used at a concentration of 10 μg/ml and made by diluting stock Ab in a Coating Buffer solution containing phosphate buffered saline (PBS). The Primary Ab's were used at a concentration of 1 μg/ml and made by diluting stock Ab in an Assay Buffer solution containing PBS, bovine serum albumin (BSA), and Tween20. The Blocking Buffer consisted of BSA diluted in PBS. The Avidin-HRP was also diluted in Assay Buffer and used at a concentration of 200 ng/ml. The Substrate solution was used as provided.
Each fluid transfer step, from a source well to a destination well, followed a fluid transfer rule that included a HP portion to move the majority of fluid through a given channel followed by a longer LP portion to empty the source well without emptying the channel as described previously. The HP portion typically was between 5 and 20 sec while the LP portion typically was between 30 and 300 sec. Incubation in the assay channel was done using a different fluid transfer rule that included successive short HP transfers followed by a delay between transfers to allow interaction of the reagents with the assay channel walls. […]

For assay [2], the system named is HUVECs stimulated with an inflammatory cytokine mixture of TNF-α, IL-1β, and IFN-γ (IL-8, IL-6, MCP-1 upregulation). The experiment in a line: Multiparametric HUVEC inflammation assay, secreted cytokines quantified by microfluidic flowchip ELISA. The note with it: for HUVEC inflammation response as shown by upregulation of IL-8, IL-6, and MCP-1: HUVECs stimulated with TNF-α, IL-1β, IFN-γ mixture for 20 hours at 37° C., concentration dependent effect of compound; for IL-8 expression: HUVECs, compounds added 1 hour prior to inflammatory cytokine mixture, 20 hours at 37° C. In kind it is cell-based, human.
Source text: We present results from a multiparametric primary human cell-based assay that uses immunoassays for secreted cytokines to evaluate the effect of different mediators on inflammatory response. Expression of the inflammation markers from primary human umbilical vein endothelial cells (HUVEC) stimulated with inflammation cytokines (TNF-α, IFN-γ, and IL-1β) was quantified by microfluidic-based ELISAs.
The Capture and Primary antibodies are specific to each immunoassay and matched antibody pairs for the MCP-1, IL-8, and IL-6 assays were obtained from a commercial source (Biolegend, San Diego, CA). The buffers and Stop Solution are common to all three assays and were made using materials obtained from Sigma-Aldrich. The SA-HRP (Becton Dickenson, San Diego, CA) and Substrate (Abcam, Cambridge, MA) were also common to each assay. The Capture Ab's were used at a concentration of 10 μg/ml and made by diluting stock Ab in a Coating Buffer solution containing phosphate buffered saline (PBS). The Primary Ab's were used at a concentration of 1 μg/ml and made by diluting stock Ab in an Assay Buffer solution containing PBS, bovine serum albumin (BSA), and Tween20. The Blocking Buffer consisted of BSA diluted in PBS. The SA-HRP was also diluted in Assay Buffer and used at a concentration of 200 ng/ml. The Substrate solution was used as provided.

As for `S=C(S)N1CCCC1` [PDTC], in assay [1], the “THP-1 cellular inflammation response as shown by upregulation of IL-8” value is given as “clearly diminished” and the cytokine expression entry is reported as “Concentration-dependent decreases”.

Consider `N#CC(C#N)=Cc1ccc([N+](=O)[O-])c(O)c1` [AG-126], for which, in assay [2], the “HUVEC inflammation response as shown by upregulation of IL-8, IL-6, and MCP-1” value (“HUVEC inflammation response as shown” below) is “clearly diminished”; the IL-8 expression entry is given as “reduced at similar concentrations”.

Take `Oc1ccc(-c2nc(-c3ccncc3)c(-c3ccc(F)cc3)[nH]2)cc1` [SB202190]: in assay [2], the “HUVEC inflammation response as shown” value is on record as “clearly diminished”; the IL-8 expression entry was “reduced at similar concentrations”. Further, in assay [1], the “THP-1 cellular inflammation response as shown by upregulation of IL-8” value was “clearly diminished” and the cytokine expression result is “Concentration-dependent decreases”.

For the compound `CC(C)C[C@@H](C=O)NC(=O)[C@H](CC(C)C)NC(=O)[C@H](CC(C)C)NC(=O)OCc1ccccc1` [MG-132] (Cbz-Leu-Leu-Leu-aldehyde), in assay [2], the “HUVEC inflammation response as shown” value was “clearly diminished”; the IL-8 expression entry is listed as “not affected within the concentration range studied”.
